Assay results taken from PubChem BioAssay (NCI).
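Where inhibition never reached the appropriate level, the endpoint shown equals the highest concentration tested. Otherwise, values were interpolated linearly from a five-concentration, 48-hour dose response in 96-well plates. At the TGI there is no net growth.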

How the values were obtained:
Assay in all cases: NCI tumour cell line growth inhibition, 48 h
OVCAR-5 ovarian = system: OVCAR-5 ovarian
TK-10 renal = system: TK-10 renal
SF-268 CNS = system: SF-268 CNS
DLD-1 colon = system: DLD-1 colon
UACC-257 melanoma = system: UACC-257 melanoma
CCRF-CEM leukemia = system: CCRF-CEM leukemia
DMS 114 small cell lung = system: DMS 114 small cell lung
HCT-116 colon = system: HCT-116 colon
SNB-78 CNS = system: SNB-78 CNS
K-562 leukemia = system: K-562 leukemia
UO-31 renal = system: UO-31 renal
KM12 colon = system: KM12 colon
SR leukemia = system: SR leukemia
MALME-3M melanoma = system: MALME-3M melanoma
SK-MEL-28 melanoma = system: SK-MEL-28 melanoma
U251 CNS = system: U251 CNS
NCI-H460 lung = system: NCI-H460 lung
RPMI-8226 leukemia = system: RPMI-8226 leukemia
ACHN renal = system: ACHN renal
MOLT-4 leukemia = system: MOLT-4 leukemia
HOP-92 NSCLC = system: HOP-92 NSCLC
HCC-2998 colon = system: HCC-2998 colon
SW-620 colon = system: SW-620 colon
RXF 393 renal = system: RXF 393 renal
OVCAR-3 ovarian = system: OVCAR-3 ovarian
EKVX NSCLC = system: EKVX NSCLC
A549 NSCLC = system: A549 NSCLC
DMS 273 small cell lung = system: DMS 273 small cell lung
M19-MEL melanoma = system: M19-MEL melanoma
SF-539 CNS = system: SF-539 CNS
SF-295 CNS = system: SF-295 CNS
786-0 renal = system: 786-0 renal
A498 renal = system: A498 renal
OVCAR-8 ovarian = system: OVCAR-8 ovarian
SN12C renal = system: SN12C renal
NCI-H23 lung = system: NCI-H23 lung
SNB-75 CNS = system: SNB-75 CNS
HT29 colon = system: HT29 colon
HL-60(TB) leukemia = system: HL-60(TB) leukemia
SK-OV-3 ovarian = system: SK-OV-3 ovarian
CAKI-1 renal = system: CAKI-1 renal
COLO 205 colon = system: COLO 205 colon
IGROV1 ovarian = system: IGROV1 ovarian
SK-MEL-2 melanoma = system: SK-MEL-2 melanoma
SNB-19 CNS = system: SNB-19 CNS
UACC-62 melanoma = system: UACC-62 melanoma
SK-MEL-5 melanoma = system: SK-MEL-5 melanoma
NCI-H226 lung = system: NCI-H226 lung
NCI-H522 lung = system: NCI-H522 lung
LXFL 529 NSCLC = system: LXFL 529 NSCLC
M14 melanoma = system: M14 melanoma
HOP-62 NSCLC = system: HOP-62 NSCLC
KM20L2 colon = system: KM20L2 colon
HOP-18 NSCLC = system: HOP-18 NSCLC
LOX IMVI melanoma = system: LOX IMVI melanoma
HCT-15 colon = system: HCT-15 colon
OVCAR-4 ovarian = system: OVCAR-4 ovarian

Measured: TGI

ClCCC[Si]12OCCN(CCO1)CCO2
not listed: M14 melanoma | HOP-62 NSCLC | KM20L2 colon | HOP-18 NSCLC | LOX IMVI melanoma | HCT-15 colon | OVCAR-4 ovarian
> 100 µM: all other assays above

O=c1[nH]cnc2c(COCCCO)c[nH]c12
not listed: NCI-H460 lung | HCC-2998 colon | DMS 273 small cell lung | SF-539 CNS | A498 renal | NCI-H226 lung | OVCAR-4 ovarian
> 100 µM: all other assays above

Cn1c(=O)c2nc3c4ccccc4c(=O)n(C)c3nc2n(C)c1=O
not listed: DLD-1 colon | CCRF-CEM leukemia | NCI-H460 lung | DMS 273 small cell lung | A498 renal | HL-60(TB) leukemia | CAKI-1 renal | NCI-H522 lung | M14 melanoma | HOP-62 NSCLC | HOP-18 NSCLC | LOX IMVI melanoma | OVCAR-4 ovarian
> 100 µM: all other assays above

CCN=C1Nc2ccccc2-n2c(nn3nc4ccccc4c23)N1CC
not listed: TK-10 renal | SNB-78 CNS | UO-31 renal | MALME-3M melanoma | HCC-2998 colon | OVCAR-3 ovarian | SK-OV-3 ovarian | CAKI-1 renal | SK-MEL-2 melanoma
> 100 µM: all other assays above
